Data as given in patent US20140017187A1, “Use of 5-(7-methoxy-3,3-dimethyl-2,3-dihydro-1-benzoxepin-5-yl)-3-methyl-penta-2,4-dienoic acid as a cosmetic” (Merck Patent GmbH, priority 2008, published 2014).
Several values for one entry are separate records, joined by “and”; a condition that tells them apart may be missing. Identical values can stand only once.

Tests used:
PPARγ = PPARγ luciferase reporter gene activation in CV1 cells expressing endogenous PPARγ; format: cell-based, green monkey; settings: for Fold Activation PPAR gamma, MEAN: mean of the two experiments in triplicate; for Fold Activation PPAR gamma: single values of triplicates, two experiments, relative to control
From the text: (§1) Analysis of the activation of PPARα and PPARγ is based on the transfection of a DNA allowing the expression of a reporter gene (the gene of luciferase) under the control of the PPARs, either endogenous in the case of PPARγ or cotransfected in the case of PPARα. The reporter plasmid J3TkLuc comprises three copies of the response element for PPARs of the human apo A-II gene (Staels, B et al. (1995), J. Clin. Invest., 95, 705-712) which are cloned upstream of the promoter of the thymidine kinase gene of the herpes simplex virus in the plasmid pGL3. This reporter gene was obtained by subcloning, in the plasmid pGL3, the plasmid J3TkCAT described above (Fajas, L et al. (1997), J. Biol. Chem., 272, 18779-18789). […] These cells were inoculated at a density of 20,000 cells per well (96-well plates) and transfected with 150 ng of reporter DNA complexed with a mixture of lipids. In the case of the SK-Hep1 cells, an expression vector for PPARα, described by Sher, T. et al. (1993), Biochemistry, 32, 5598-5604, is cotransfected. After 5 hours, the cells are washed twice and incubated for 36 hours in the presence of the test compound in a fresh culture medium comprising 10% foetal calf serum. At the end of incubation, the cells are lysed and the luciferase activity is measured.

[1] = Mutagenicity studies (in house data)
PPARα = molecular target: T1, PPARα (Homo sapiens, UniProt Q07869); test: PPARα luciferase reporter gene activation in SK-Hep1 cells cotransfected with PPARα expression vector; format: cell-based; settings: for Fold Activation PPAR alpha, MEAN: mean of the two experiments in triplicate; for Fold Activation PPAR alpha: single values of triplicates, two experiments, relative to control; for balance of stimulation of PPAR-alpha and -gamma receptors: both receptors activated in the same concentration range
T1 construct: expressed in transfected cells; host or cells: human SK-Hep1 cells
T1 sequence (Q07869 1-468): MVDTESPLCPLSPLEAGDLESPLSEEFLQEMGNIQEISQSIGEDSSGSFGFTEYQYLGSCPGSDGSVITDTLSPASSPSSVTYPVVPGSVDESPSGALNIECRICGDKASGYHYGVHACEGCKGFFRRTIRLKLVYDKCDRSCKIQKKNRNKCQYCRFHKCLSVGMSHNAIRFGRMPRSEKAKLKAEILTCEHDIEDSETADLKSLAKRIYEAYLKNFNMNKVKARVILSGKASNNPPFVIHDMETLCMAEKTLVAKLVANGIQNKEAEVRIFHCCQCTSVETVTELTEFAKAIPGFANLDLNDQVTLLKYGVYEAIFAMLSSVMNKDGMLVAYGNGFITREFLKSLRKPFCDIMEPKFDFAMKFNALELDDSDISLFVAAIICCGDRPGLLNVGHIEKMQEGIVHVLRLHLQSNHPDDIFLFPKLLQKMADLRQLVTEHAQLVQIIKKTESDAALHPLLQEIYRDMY
From the text: as §1

animal models = settings: in vivo

Fold Activation PPAR alpha, MEAN (PPARα; 0.3 μm): 1.4 fold
Fold Activation PPAR alpha, MEAN (PPARα; 1 μm): 0.7 fold
Fold Activation PPAR alpha, MEAN (PPARα; 3 μm): 0.8 fold
Fold Activation PPAR alpha, MEAN (PPARα; 10 μm): 1.2 fold
Fold Activation PPAR alpha, MEAN (PPARα; 30 μm): 4.9 fold
Fold Activation PPAR alpha, MEAN (PPARα; 50 μm): 8.0 fold
Fold Activation PPAR alpha, MEAN (PPARα; 100 μm): 6.9 fold
balance of stimulation of PPAR-alpha and -gamma receptors (PPARα): well-balanced stimulation
balance of stimulation of PPAR-alpha and -gamma receptors (PPARα; listed as EMD 336340): balanced activity
SMILES: COc1ccc2c(c1)C(/C=C/C(C)=C/C(=O)O)=CC(C)(C)CO2 [Compound, 5-(7-methoxy-3,3-dimethyl-2,3-dihydro-1-benzoxepin-5-yl)-3-methyl-penta-2,4-dienoic acid]
Fold Activation PPAR gamma, MEAN (PPARγ; 0.3 μm): 0.9 fold
Fold Activation PPAR gamma, MEAN (PPARγ; 1 μm): 1.0 fold
Fold Activation PPAR gamma (PPARγ; 1 μm): 0.8 fold and 1.2 fold and 0.9 fold and 1.0 fold and 1.3 fold
Fold Activation PPAR gamma, MEAN (PPARγ; 3 μm): 1.5 fold
Fold Activation PPAR gamma (PPARγ; 3 μm): 1.2 fold and 1.6 fold and 1.3 fold and 2.1 fold
Fold Activation PPAR gamma, MEAN (PPARγ; 10 μm): 5.2 fold
Fold Activation PPAR gamma, MEAN (PPARγ; 30 μm): 14.4 fold
Fold Activation PPAR gamma, MEAN (PPARγ; 50 μm): 17.6 fold
Fold Activation PPAR gamma, MEAN (PPARγ; 100 μm): 15.2 fold
genotoxicity [1]: not genotoxic
Fold Activation PPAR alpha (PPARα; 0.3 μm): 0.7 fold and 0.8 fold and 0.6 fold and 0.5 fold
Fold Activation PPAR alpha (PPARα; 3 μm): 0.6 fold and 0.7 fold and 1.0 fold and 1.1 fold and 0.8 fold
toxic effect in animal models (animal models): no toxic effect
